# Data as given in the Kinase Knowledgebase extract (Sharma et al. 2016).
# Molecular target: CDK2 (human) (UniProt P24941)
# Assay: Enzyme Assay
# Details: concentration not given here
smiles,measurement,value
Cc1c(C(=O)N2CCC(Nc3nc(N)c(C(=O)c4c(F)cccc4F)s3)CC2)oc2ccccc12,inhibition,38%
